Measurements: patent publication US10070889B2, “Inorganic pyrophosphate and uses thereof” (The Curators of the University of Missouri, priority 2011, dated 2018)
Where two headings read alike, the source gives them in different places. Where a SMILES comes first, the peptide text is derived from it. The star is where a group is joined. Cbz = O=C(OCc1ccccc1)*

Assays:
[1] = system: 20S chymotrypsin-like activity sensitive to proteasomal inhibitor MG132; experiment: Proteasomal activity of stored spermatozoa, fluorometric substrate Z-LLL-AMC; assay type: cell-based, boar
Experimental: Spermatozoa preserved in BTS with and without 10 μM PPi were loaded into a 96-well black plate (final sperm conc. 1×10^6 spermatozoa/ml), and incubated at 37.5° C. with Z-LLE-AMC (a specific substrate for 20S chymotrypsin-like peptidyl-glutamylpeptide hydrolyzing [PGPH] activity not sensitive to MG132; final conc. 100 μM; Enzo Life Sciences, Plymouth, Pa.), Z-LLVY-AMC (a specific substrate for 20S proteasome and other chymotrypsin-like proteases, as well as calpains; final conc. 100 μM; Enzo), Z-LLL-AMC (a specific substrate for 20S chymotrypsin-like activity sensitive to proteasomal inhibitor MG132; final conc. 100 μM; BostonBiochem, Cambridge, Mass.) or ubiquitin-AMC (specific substrate for ubiquitin-C-terminal hydrolase activity; final conc. 1 μM; Enzo) for 1 h. […] In the presence of appropriate 20S core activity, the AMC molecule is cleaved off and becomes fluorescent. This emitted fluorescence was measured every 10 min for a period of 1 h, yielding a curve of relative fluorescence (no units). Fluorescence intensity was measured by Thermo Fluoroskan Ascent (Thermo Scientific), using a 380 nm excitation and 460 nm emission.

[2] = system: porcine oocytes inseminated with boar spermatozoa; experiment: Porcine in vitro fertilization (IVF), total and polyspermic fertilization rates; assay type: cell-based
Experimental: Thereafter, 25-30 oocytes were placed into each of four 50 μl drops of the mTBM medium, which had been covered with mineral oil in a 35 mm polystyrene culture dish. The dishes were allowed to equilibrate in the incubator for 30 min until spermatozoa were added for fertilization. […] At the end of the washing procedure, the spermatozoa were resuspended in mTBM medium. After appropriate dilution, 50 μl of this sperm suspension was added to 50 μl of the medium that contained oocytes to give a final sperm concentrations of 1-10×10^5 spermatozoa/ml. Different concentrations of inorganic pyrophosphate (PPi; […], Sigma) were added to fertilization drops (final concentrations; 0-20 μM) at the time of sperm addition. Oocytes were co-incubated with spermatozoa for 6 h at 38.5° C., 5% CO2. At 6 h after IVF, oocytes were transferred into 100 μl NCSU23 containing 0.4% BSA ([…], Sigma) for further culture during 16-20 h.

[3] = system: 20S proteasome and other chymotrypsin-like proteases, as well as calpains; conditions: PPi+BTS and Add PPi treatments, 10 μM PPi; controls 85.7
Experimental: (§1) The proteasomal-proteolytic and deubiquitinating activities, which are essential for fertilization, were assayed using specific fluorometric substrates Z-LLL-AMC, Z-LLVY-AMC, Z-LLE-AMC and ubiquitin-AMCs in spermatozoa stored for 3 and 10 days, with or without PPi. Alternatively, 10 μM PPi+BTS was added to semen preserved without PPi at the time of assay (“Add PPi” treatment). As a negative control, 10 μM MG132 (a proteasomal inhibitor) was added to sperm samples before assay.
(§2) Spermatozoa preserved in BTS with and without 10 μM PPi were loaded into a 96-well black plate (final sperm conc. 1×10^6 spermatozoa/ml), and incubated at 37.5° C. with Z-LLE-AMC (a specific substrate for 20S chymotrypsin-like peptidyl-glutamylpeptide hydrolyzing [PGPH] activity not sensitive to MG132; final conc. 100 μM; Enzo Life Sciences, Plymouth, Pa.), Z-LLVY-AMC (a specific substrate for 20S proteasome and other chymotrypsin-like proteases, as well as calpains; final conc. 100 μM; Enzo), Z-LLL-AMC (a specific substrate for 20S chymotrypsin-like activity sensitive to proteasomal inhibitor MG132; final conc. 100 μM; BostonBiochem, Cambridge, Mass.) or ubiquitin-AMC (specific substrate for ubiquitin-C-terminal hydrolase activity; final conc. 1 μM; Enzo) for 1 h. Fluorogenic proteasomal core substrates are composed of a small peptide (LLL/LLE/LLVY) coupled to a fluorescent probe, aminomethylcoumarin (AMC). […] In the presence of appropriate 20S core activity, the AMC molecule is cleaved off and becomes fluorescent. This emitted fluorescence was measured every 10 min for a period of 1 h, yielding a curve of relative fluorescence (no units). Fluorescence intensity was measured by Thermo Fluoroskan Ascent (Thermo Scientific), using a 380 nm excitation and 460 nm emission.

[4] = system: 20S chymotrypsin-like peptidyl-glutamylpeptide hydrolyzing [PGPH] activity; conditions: other treatments 363.1-386.1
Experimental: as §1, §2

[5] = system: ubiquitin-C-terminal hydrolase activity; conditions: PPi+BTS (stored with 10 μM PPi), day 10; other treatments 98.4-122.7
Experimental: as §1, §2

[6] = system: boar spermatozoa; conditions: stored in BTS with 10 μM PPi
Experimental: Boar spermatozoa were washed twice with PBS-PVA, and sperm concentration was adjusted to 1×10^6 spermatozoa/ml in PBS-PVA. The sperm viability was assessed by LIVE/DEAD® Sperm Viability Kit (L-7011, Molecular Probes) which contains DNA dyes SYBR14 and propidium iodide (PI), following a manufacturer's protocol. Sperm samples (198 μl) were loaded onto a 96-well plate. SYBR14 (1 μl; final conc. 100 nM) and PI (1 μl; final conc. 12 μM) were added to sperm samples and incubated for 10 min at 37.5° C. in darkness. Flow cytometric analysis was performed using a Guava EasyCyte™ Plus flow cytometer (Guava Technologies, IMV Technologies, L'Aigle, France). For each sample, 5,000 events were analyzed by the Guava ExpressPro Assay program, using standard manufacturer settings. For assessment of sperm mitopotential, boar spermatozoa were stained with JC-1 (Cat. No. 4500-0250, MitoPotential Kit, IMV), and measured using manufacturer settings. For negative controls, DMSO or no staining solution was added to sperm samples.
Following an industry practice for boar semen storage, fresh boar semen was diluted in BTS extender and stored at room temperature (15-17° C.) for 10 days. […] As described above, sperm viability was assessed by flow cytometry using a SYBR14/PI viability kit and mitopotential was measured with JC-1 dye.

[7] = system: boar spermatozoa; conditions: BTS-IMV+10 μM PPi, day 6, vs all other groups
Experimental: Values are expressed as the mean±SEM. […] Values are expressed as the mean percentages ±SEM. […] (C) Effect of PPi supplementation on the viability of spermatozoa stored in commercial and custom made BTS extenders. Boar spermatozoa were preserved in BTS-IMV (IMV technologies, France) or BTS-HM (homemade) with and without 10 μM PPi for 7 days at room temperature. Sperm motilities were evaluated by observation under light microscopy at 37.5° C. […] Experiments were repeated twice.
Semen was collected from proven fertile adult Duroc boars 15-22 months of age under the guidance of approved Animal Care and Use Committee (ACUC) protocols of the University of Missouri-Columbia (UM-C). The boars were placed on a routine collection schedule of one collection per week. The sperm-rich fraction of ejaculate was collected into an insulated vacuum bottle. Sperm-rich fractions of ejaculates with greater than 85% motile spermatozoa were used. Semen volumes were determined with a graduated cylinder. Sperm concentrations were estimated by a hemocytometer (Fisher Scientific, Houston, Tex.). The percentage of motile spermatozoa was estimated at 38.5° C. by light microscopy at 250× magnification. […]

[8] = system: boar spermatozoa bound to porcine oocyte zona pellucida
Experimental: Spermatozoa/oocytes were fixed in 2% formaldehyde for 40 min at room temperature, washed, permeabilized in PBS with 0.1% Triton-X-100 (PBS-TX), and blocked for 25 min in PBS-TX containing 5% normal goat serum. […] In order to count the number of spermatozoa bound to zona pellucida or acrosome reacted spermatozoa, oocyte were fixed and stained with DAPI and acrosome-binding lectin PNA-FITC (Molecular Probes) after IVF 30 min (5×10^5 spermatozoa/ml). Image acquisition was performed on a Nikon Eclipse 800 microscope (Nikon Instruments Inc., Melville, N.Y.) with Cool Snap camera (Roper Scientific, Tucson, Ariz.) and MetaMorph software (Universal Imaging Corp., Downington, Pa.).

[9] = system: sperm diluted in BTS; conditions: added to sperm diluted in BTS, after 6 days of cooling; cited from earlier work

With `CC(C)C[C@@H](C=O)NC(=O)[C@H](CC(C)C)NC(=O)[C@H](CC(C)C)NC(=O)OCc1ccccc1` [MG132, reference compound] (Cbz-Leu-Leu-Leu-aldehyde) the “chymotrypsin-like activity in spermatozoa” value ([1]; 10 μM MG132 added before assay, day 3) was “low”.
In the case of `O=P(O)(O)OP(=O)(O)O` [PPi, inorganic pyrophosphate], the polyspermy ([2]; 10 μM PPi in IVF medium, 1×10^6 spermatozoa/ml) is reported as 84.9%, the “percentage of total and polyspermic fertilization at reduced sperm concentrations” value ([2]; 10 μM PPi, 1, 2 and 5×10^5 spermatozoa/ml, significant at 5×10^5) is reported as “augmented” and the “fertilization rates with excess PPi” value ([2]; 100-500 μM PPi added into IVF medium) is reported as “decreased fertilization rates in a dose-dependent manner”. The “rates of total and polyspermic fertilization” value ([2]; increasing concentrations of PPi (up to 10 μM) in IVF medium, 1×10^6 spermatozoa/ml) was “increased significantly and progressively”, the “combined (mono+polyspermic) fertilization rate, spermatozoa preserved with PPi” value ([2]; preserved with 10 μM PPi in BTS 3-4 days, IVF with or without PPi (FIG. 7D third, fourth column)) was “highest” and the fertilization ([2]; spermatozoa stored in BTS-IMV with 10 μM PPi for 3 days, below 70% without PPi) was roughly 100%. For the same compound, the “fertilization rates, spermatozoa stored without PPi, PPi added during IVF” value ([2]; stored 3-4 days in BTS without PPi, IVF with 10 μM PPi (FIG. 7D second column)) was “higher”, the “chymotrypsin-like proteasomal core activity (Z-LLVY-AMC), fluorescence intensity” value [3] was 110.8-121.5 and the “chymotrypsin-like PGPH activity (Z-LLE-AMC), relative fluorescence” value ([4]; Add PPi treatment (10 μM PPi added at time of assay), day 3) was 392.1. The “chymotrypsin-like PGPH activity (Z-LLE-AMC), relative fluorescence” value ([4]; PPi+BTS (stored with 10 μM PPi), day 10) was 388, the “deubiquitinating activity (ubiquitin-AMC), relative fluorescence” value [5] was 138.9 and the “content of metabolically active spermatozoa with polarized mitochondrial membranes” value ([6]; day 3, JC-1) was “augmented”. For the same compound, the “percentage of live spermatozoa vs control spermatozoa” value ([6]; storage days 3 and 10, SYBR14/PI) was “no significant difference”, the “chymotrypsin-like activity (Z-LLL-AMC)” value ([1]; 10 μM PPi treatments vs no PPi, 1 h measurement) was “no differences between treatments” and the sperm motility [7] was “Higher”. The “percentage of acrosome-reacted spermatozoa” value ([8]; 20 μM PPi vs 0-15 μM PPi) was “significantly higher” and the “mean number of spermatozoa bound to ZP” value ([8]; increasing concentrations of PPi, 30 min, 5×10^5 spermatozoa/ml) was “decreased slightly, but not significantly”.
For prostaglandin F2α [PGF2α], the “sperm viability and motility” value [9] is listed as “maintained better sperm viability and motility”.
